From patent publication US12428459B2, “Protein tag to induce ligand dependent degradation of protein/protein-fusions” (DANA-FARBER CANCER INSTITUTE, INC., priority 2019, dated 2025)
“Also recorded” adds a separate entry of the source.

Tests used:
[1] = test system: Kelly cells; assay: TMT quantification mass spectrometry proteomics (degradome of E7820); format: cell-based; details: E7820 10 μM, 5 h
Procedure: Treated Kelly cells were washed in PBS (Corning VWR, Radnor PA, USA) and collected at 3000 g centrifugation. Sample preparation and LC-MS analysis for whole proteome identification of novel E7820-dependent substrates was performed as described previously (Donovan et al., Elife 7:38430 (2018)).

[2] = target: T1, DDB1ΔB-DCAF15split and BodipyFL-RBM39RRM2 (Homo sapiens, UniProt Q14498+Q66K64); assay: TR-FRET recruitment assay with DCAF15split: titration of E7820; format: binding; details: E7820 0.002-33 μM, proteins at 200 nM
T1 construct: DCAF15 NTD (30-264), DCAF15 CTD (383-600); RBM39RRM2 (245-332), and RBM23RRM2 (263-341); Strep II Avi (N); made in house; host or cells: Trichoplusia ni High Five insect cells (baculovirus)

[3] = target: T2, DDB1ΔB-DCAF15 and BodipyFL-RBM39RRM2-G268V (Homo sapiens, UniProt Q14498+Q66K64, G268V); assay: TR-FRET recruitment assay with the RBM39RRM2 G268V mutant: titration of E7820; format: binding; details: BodipyFL-RBM39RRM2-G268V 200 nM, E7820 0.002-33 μM
T2 construct: RBM39RRM2 (245-332), and RBM23RRM2 (263-341); made in house; host or cells: Trichoplusia ni High Five insect cells (baculovirus)
Procedure: (§1) Titrations of compounds to induce DCAF15-RBM39 or DCAF15-RBM23 complex were carried out by mixing 200 nM biotinylated Strep II Avi-tagged DCAF15, 200 nM BodipyFL-labeled RBM39 or RBM23 variants, and 2 nM terbium-coupled streptavidin (Invitrogen™) in an assay buffer containing 50 mM Tris pH 8.0, 200 mM NaCl, 0.1% Pluronic F-68 solution (Sigma®), and 0.5% BSA (w/v). Full-length human DCAF15 was used in all TR-FRET assays. After dispensing the assay mixture, increasing concentrations of compounds were dispensed in a 384-well microplate (Corning, 4514) using a D300e Digital Dispenser (HP) normalized to 2% DMSO. Before TR-FRET measurements were conducted, the reactions were incubated for 15 min at room temperature. After excitation of terbium fluorescence at 337 nm, emission at 490 nm (terbium) and 520 nm (BodipyFL) were recorded with a 70 μs delay over 600 μs to reduce background fluorescence, and the reaction was followed over 60 cycles of each data point using a PHERAstar® FS microplate reader (BMG Labtech). The TR-FRET signal of each data point was extracted by calculating the 520/490 nm ratio. The half-maximal effective concentration EC50 values calculated using [Agonist] vs response (three parameters) equation in GraphPad Prism® 7.

[4] = target: T3, RBM39RRM2-biotin (Homo sapiens, UniProt Q14498); assay: TR-FRET titration of BodipyFL-E7820 probe to RBM39RRM2-biotin; format: binding; details: RBM39RRM2-biotin alone
T3 construct: RBM39RRM2 (245-332), and RBM23RRM2 (263-341); made in house; host or cells: Trichoplusia ni High Five insect cells (baculovirus)
T3 sequence (Q14498 245-332): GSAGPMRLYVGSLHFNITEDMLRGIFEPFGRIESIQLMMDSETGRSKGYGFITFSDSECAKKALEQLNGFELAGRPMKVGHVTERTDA

[5] = test system: DDB1ΔB-DCAF15biotin-DDA1 / RBM39RRM2; assay: TR-FRET titration of BodipyFL-RBM39RRM2 to the DDA1-containing complex with E7820; format: binding, human; details: with versus without DDA1
Procedure: (§2) Titrations of BodipyFL-RBM39 were carried out by mixing 400 nM biotinylated Strep II Avi-tagged DCAF15 variants, 100 μM compounds or equivalent volume of DMSO, and 4 nM terbium-coupled streptavidin in the same assay buffer. After dispensing the assay mixture, increasing concentration of BodipyFL-RBM39 was added to the compound-bound DCAF15 in a 1:1 volume ratio and incubated for 15 min at room temperature. The 520/490 nm ratios were plotted to calculate the Kd values estimated using One site-Specific binding equation in GraphPad Prism® 7.

[6] = target: T4, RBM39 in HEK293T cells (Homo sapiens, UniProt Q14498+Q66K64); assay: Cellular degradation of endogenous RBM39, western blot; format: cell-based; details: 500 nM E7820, HEK293T, 6 h
T4 construct: cellular degradation of endogenous RBM39; endogenous in cells; host or cells: HEK293T
Procedure: FIG. 7A-FIG. 7G are a series of cartoon representations, graphs, and structures depicting the biochemical characterization of DCAF15 binding to aryl-sulfonamides and RBM39RRM2. FIG. 7A is a schematic representation of TR-FRET-based DCAF15-RBM39 dimerization assay. FIG. 7B is a graph of TR-FRET for the titration of BodipyFL-RBM39RRM2 (0.02-20 μM) to DDB1ΔB-DCAF15biotin at 200 nM in the absence (DMSO) or presence of aryl-sulfonamides at 50 μM. Data is plotted as means±s.d. from three independent replicates (n=3). […] FIG. 7D is a schematic representation of TR-FRET-based DCAF15 binding assay. Compound 4 is titrated to the DDB1ΔB-DCAF15biotin, and the probe is displaced by competitor compounds. FIG. 7E is the chemical structure of BodipyFL-E7820 (4). […] Data is plotted as means±s.d. from three independent replicates (n=3). FIG. 7G is an immunoblot showing cellular degradation of endogenous RBM39. […] Shown is the uncropped blot with molecular size markers. The positions of RBM39 and GAPDH are indicated, and the asterisk marks a non-specific band. Quantitation of RBM39 and GAPDH bands was performed with the LI-COR imaging system, and % RBM39 is calculated as [RBM39 intensity/GAPDH intensity].

[7] = test system: DDB1ΔB-DCAF15biotin-DDA1; assay: TR-FRET titration of BodipyFL-E7820 probe to the DDA1-containing complex; format: binding, human; details: with versus without DDA1
Procedure: Titrations of BodipyFL-E7820 (4) were carried out by mixing 200 nM biotinylated Strep II Avi-tagged DCAF15 variants or equivalent volume of the assay buffer, 2 nM terbium-coupled streptavidin in the same assay buffer. After dispensing the assay mixture, increasing concentration of BodipyFL-E7820 (4) was dispensed in the 384-well plate using D300e normalized to 2% DMSO, and then incubated for 15 min at room temperature. The 520/490 nm ratios from the sample with DCAF15 was subtracted by the ratios from the sample without DCAF15, and the subtracted values were plotted to calculate the Kd values estimated using One site-Specific binding equation in GraphPad Prism® 7. All TR-FRET results are plotted as means±s.d. from three independent replicates (n=3) unless otherwise indicated.

[8] = test system: degron tag-eGFP fusion protein in HEK293T cells; assay: Compound-dependent degradation of degron-eGFP fusion, eGFP/mCherry ratio; format: cell-based; details: 20-hour treatment
From the text: To test compound-dependent degradation of the designed degron tags, a fusion protein of the tags and enhanced green fluorescence protein (eGFP) was stably expressed in HEK293T cells using a lentiviral vector. As an internal control, the cells also expressed an untagged mCherry protein downstream of the same promoter as degron-eGFP separated by an internal ribosomal entry site. […] A lower value of eGFP/mCherry at the same compound concentration indicates a higher rate of degradation. Designed degrons have higher degradation at low doses of aryl-sulfonamides and also lower IC50 values.

[9] = target: T5, DDB1ΔB-DCAF15biotin (Homo sapiens, UniProt Q66K64); assay: TR-FRET competition assay: displacement of BodipyFL-E7820 by aryl-sulfonamides; format: binding; details: for DCAF15 binding relative to E7820: competitive binding assay
T5 construct: Full-length human DCAF15 was used in all TR-FRET assays; made in house; host or cells: Trichoplusia ni High Five insect cells (baculovirus)
From the text: The 520/490 nm ratios from the sample with DCAF15 was subtracted by the ratios from the sample without DCAF15, and the subtracted values were plotted to calculate the Kd values estimated using One site-Specific binding equation in GraphPad Prism® 7. All TR-FRET results are plotted as means±s.d. from three independent replicates (n=3) unless otherwise indicated.

[10] = target: T6, DDB1ΔB-DCAF15biotin and BodipyFL-RBM39RRM2 (Homo sapiens, UniProt Q14498+Q66K64); assay: TR-FRET RBM39RRM2 recruitment assay: titration of compound; format: binding; details: BodipyFL-RBM39RRM2-WT 200 nM, DCAF15 200 nM; read-out: EC50 of DCAF15-RBM39RRM2 complex formation
T6 construct: Full-length human DCAF15 was used in all TR-FRET assays; RBM39RRM2 (245-332), and RBM23RRM2 (263-341); made in house; host or cells: Trichoplusia ni High Five insect cells (baculovirus)
Procedure: as §1

[11] = target: T7, DDB1ΔB-DCAF15biotin / RBM39RRM2 (Homo sapiens, UniProt Q14498+Q66K64); assay: TR-FRET DCAF15-RBM39 dimerization assay: titration of BodipyFL-RBM39RRM2 to DDB1ΔB-DCAF15biotin with aryl-sulfonamide; format: binding; details: compound at 50 μM; DDB1ΔB-DCAF15biotin without DDA1; read-out: KD^app of RBM39RRM2 for DDB1ΔB-DCAF15 in the presence of compound
T7 construct: Full-length human DCAF15 was used in all TR-FRET assays; RBM39RRM2 (245-332), and RBM23RRM2 (263-341); made in house; host or cells: Trichoplusia ni High Five insect cells (baculovirus)
Procedure: Time-Resolved Fluorescence Resonance Energy Transfer (TR-FRET)
as §2

Row | SMILES | Proteins degraded out of ~11,000 proteins detected [1] | DCAF15-RBM39 dimerization, DCAF15split versus full length DCAF15 [2] | RBM39RRM2 recruitment to DCAF15 with Gly268Val mutation [3] | Binding to RBM39RRM2 [4] | Strengthening of apparent affinity to RBM39RRM2 by DDA1 [5] [fold] | Degradation of RBM39 in cells [6] | Effect of DDA1 on the affinity of E7820 to DCAF15 [7] | Degradation of designed degron tag-eGFP (eGFP/mCherry ratio) [8] | Ki ([9]; DDB1ΔB-DCAF15biotin 200 nM, BodipyFL-E7820 5 μM, aryl-sulfonamides 0.002-100 μM, read-out: Ki for DCAF15) [µM] | DCAF15 binding relative to E7820 [9] | EC50 [10] [µM] | Kd [11] [µM]
1 | Cc1ccc(NS(=O)(=O)c2cccc(C#N)c2)c2[nH]cc(C#N)c12 [E7820] | only RBM23 to be degraded in addition to RBM39 | equivalent binding | completely abrogated | not with RBM39 | ~3 | potently degraded | not altered | – | – | – | – | –
2 | NS(=O)(=O)c1ccc(S(=O)(=O)Nc2cccc3c(Cl)c[nH]c23)cc1 [indisulam] | – | – | – | – | – | – | – | dose-dependent degradation | > 50 | significant loss of DCAF15 binding; also recorded: significant loss in affinity for DCAF15 | 3.2 | –
3 | O=C(NS(=O)(=O)c1ccc(Br)s1)c1ccc(Cl)cc1Cl [tasisulam] | – | – | – | – | – | – | – | dose-dependent degradation | – | significant loss in affinity for DCAF15 | > 10 | 3.5
